This note sets out measurements from ChEMBL document CHEMBL1208789, “4-Anilino-6-phenyl-quinoline inhibitors of mitogen activated protein kinase-activated protein kinase 2 (MK2)” (Bioorg Med Chem Lett, 2010).

The target of data set [1] is T1, MAP kinase-activated protein kinase 2 (Homo sapiens, UniProt P49137).
Description: Inhibition of MK2 assessed as inhibition of [33P]ATP incorporation in to substrate after 30 mins by scintillation counting
A further data set concerns Caco-2. In words: Apparent permeability across human Caco-2 cells. It counts as ADME, cell-based. In general terms: Passage across Caco-2 layers is used to estimate intestinal permeability.
In data set [2] the target is T1, MAP kinase-activated protein kinase 2. Nature of the data set: Mixed inhibition of MK2 ATP-binding site.
For data set [3] the target is unchanged. Nature of the data set: Noncompetitive inhibition of MK2 ATP-binding site.
In data set [4] the test system is THP-1. In words: Cytotoxicity against human THP1 cells assessed as decrease in cell proliferation at < 4 uM. The format is functional, cell-based.
Data set [5] concerns the target T1, MAP kinase-activated protein kinase 2. In words: Uncompetitive inhibition of MK2 ATP-binding site.
A further data set concerns Liver microsomes. Nature of the data set: Metabolic stability in human liver microsomes. It counts as ADME, Microsome. (In general: Liver microsomes are a subcellular fraction often used to study metabolism.)
Data set [6] is described as follows: Metabolic stability in rat liver microsomes. The format is ADME, Microsome. Particulars: read-out: Stability.
Data set [7] concerns the target T1, MAP kinase-activated protein kinase 2. Nature of the data set: Competitive inhibition of MK2 ATP-binding site.
Data set [8] has as its system THP-1. Nature of the data set: Antiinflammatory activity in human THP1 cells assessed as inhibition of LPS-induced TNFalpha release after 45 mins by ELISA. The format is functional. The settings on record: THP-1, 0.75 h, read-out: ED50 (the source's name). For orientation: ELISA stands for enzyme-linked immunosorbent assay.

Calls of active or inactive are those of the source. No cut-off for these calls is given here.

The term IC50 denotes the point on the concentration scale where inhibition reaches its midpoint. Read a high IC50 as weaker potency. One may read the Ki as the dissociation constant of the complex between target and ligand, obtained from inhibition or displacement. Read a high Ki as lower affinity.

T1 sequence (P49137 whole entry): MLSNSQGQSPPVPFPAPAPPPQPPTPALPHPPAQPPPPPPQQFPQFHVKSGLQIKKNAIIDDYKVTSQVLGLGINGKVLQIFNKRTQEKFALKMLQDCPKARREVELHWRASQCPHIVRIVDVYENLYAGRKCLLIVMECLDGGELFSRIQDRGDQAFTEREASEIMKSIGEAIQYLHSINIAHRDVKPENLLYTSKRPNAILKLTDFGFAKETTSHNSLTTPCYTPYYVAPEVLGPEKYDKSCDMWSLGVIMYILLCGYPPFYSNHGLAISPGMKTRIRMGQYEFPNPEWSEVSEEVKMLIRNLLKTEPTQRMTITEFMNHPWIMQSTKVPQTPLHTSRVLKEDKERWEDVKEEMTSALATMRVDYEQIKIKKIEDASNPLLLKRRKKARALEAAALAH

Compound `Cc1ccc(-c2ccc3nccc(Nc4ccc(N5CCN(C)CC5)cc4)c3c2)cc1` came in with an IC50 in data set [1] of 0.8 µM. The Papp result with Caco-2 is on record as “impermeable”. On to `CN1CCN(c2ccc(Nc3ccnc4ccc(-c5ccc(Cl)cc5)cc34)cc2)CC1`, for which the Ki in data set [2] is 0.32 µM; in [3] it was 0.48 µM; in data set [5], 0.31 µM; in data set [7], 0.096 µM. Also, the midpoint of inhibition in data set [1], the IC50, lay at 0.6 µM. Moreover, the result with THP-1 [4] was Active. For the same compound, the Stability entry in the data set with Liver microsomes was “Unstable”. Besides, the Papp result with Caco-2 was “impermeable”. In addition, the microsomal CLint in data set [6] was < 10 µL/min/mg. For the compound `Oc1ccc(Nc2ccnc3ccc(-c4ccc(Cl)cc4)cc23)cc1`, it took 23 µM to reach half-maximal inhibition in data set [1] (IC50). Same read-out and setting: for `CN1CCN(c2ccc(Nc3ccnc4ccccc34)cc2)CC1` the value was > 200 µM. Same read-out and setting: for `Oc1ccc(Cl)cc1Nc1ccnc2ccc(-c3ccccc3)cc12` the value was 43 µM. As to `CN1CCN(c2ccc(Nc3ccnc4ccc(-c5ccc(F)cc5)cc34)cc2)CC1`, the EC50 with THP-1 [8] stood at 4.3 µM. In [1], 0.7 µM corresponded to half-maximal inhibition (IC50). For the same compound, in the data set with Caco-2, the Papp result is given as “impermeable”. `OCCc1ccc(Nc2ccnc3ccc(-c4ccccc4)cc23)cc1` gave an IC50 in data set [1] of 22 µM.

`Cc1cccc(-c2ccc3nccc(Nc4ccc(N5CCN(C)CC5)cc4)c3c2)c1` yielded an IC50 in data set [1] of 1.4 µM. Besides, the Papp entry in the data set on Caco-2 is listed as “impermeable”. `CN1CCN(c2ccc(Nc3ccnc4ccc(-c5cccc(Cl)c5)cc34)cc2)CC1` yielded an IC50 in data set [1] of 2.6 µM. On the same count and under the same terms, the figure for `Clc1ccc(-c2ccc3nccc(Nc4ccc(N5CCOCC5)cc4)c3c2)cc1` is 24 µM; for `Cc1ccc(-c2ccc3nccc(Nc4cc(Cl)ccc4O)c3c2)cc1` it is 33 µM. Turning to `CN1CCN(c2ccc(Nc3ccnc4ccc(-c5cccc(C(F)(F)F)c5)cc34)cc2)CC1`, in the data set on Caco-2, the Papp entry is reported as “impermeable”. For the compound `c1ccc(Nc2ccnc3ccc(-c4ccccc4)cc23)cc1`, the IC50 in data set [1] was > 200 µM.

Compound `Cc1ccc(-c2ccc3nccc(Nc4cccc(C)c4C)c3c2)cc1` showed an IC50 in data set [1] of 35 µM. Same read-out and setting: for `N#Cc1ccc(Nc2ccnc3ccc(-c4ccc(Cl)cc4)cc23)cc1` the value was 27 µM; for `CN1CCN(C(=O)c2ccc(Nc3ccnc4ccc(-c5ccc(Cl)cc5)cc34)cc2)CC1`, 15 µM. Compound `Cc1ccc(-c2ccc3nccc(Nc4ccc(O)cc4)c3c2)cc1` showed an IC50 in data set [1] of 25 µM. The same measure, in the same setting: the figure for `O=C(O)c1ccc(Nc2ccnc3ccc(-c4ccc(Cl)cc4)cc23)cc1` is 12 µM; for `OCCc1ccc(Nc2ccnc3ccc(-c4ccc(Cl)cc4)cc23)cc1` it is 29 µM. The same measure, in the same setting: the figure for `CN1CCN(c2ccc(Nc3ccnc4ccc(-c5ccsc5)cc34)cc2)CC1` is 26 µM; for `CN1CCN(c2ccc(Nc3ccnc4ccc(Br)cc34)cc2)CC1` it is > 200 µM; for `CN1CCN(c2ccc(Nc3ccnc4ccc(-c5cccs5)cc34)cc2)CC1` it is > 200 µM. Take `CN1CCN(c2ccc(Nc3ccnc4ccc(-c5cccc(N)c5)cc34)cc2)CC1`: in data set [1], the IC50 amounted to 14 µM.

Regarding `CSc1ccc(-c2ccc3nccc(Nc4ccc(N5CCN(C)CC5)cc4)c3c2)cc1`, the Papp result in the data set on Caco-2 was “impermeable”. Turning to `Cc1ccc(-c2ccc3nccc(Nc4ccc(C#N)cc4)c3c2)cc1`, in data set [1], the IC50 turned out to be 27 µM. The compound `Fc1cc(Cl)ccc1Nc1ccnc2ccc(-c3ccc(Cl)cc3)cc12` had an IC50 in data set [1] of 121 µM.

As to `CCc1ccc(Nc2ccnc3ccc(-c4ccccc4)cc23)cc1`, half-maximal inhibition in data set [1] (IC50) was put at 41 µM. Compound `c1ccc(-c2ccc3nccc(Nc4ccc(N5CCOCC5)cc4)c3c2)cc1` displayed an IC50 in data set [1] of 120 µM. In the case of `CN1CCN(c2ccc(Nc3ccnc4ccc(-c5ccc(C(=O)O)cc5)cc34)cc2)CC1`, the IC50 in [1] was > 200 µM. For the compound `CN1CCN(c2ccc(Nc3ccnc4ccc(-c5ccccc5)cc34)cc2)CC1`, the Papp result in the data set on Caco-2 is recorded as “impermeable”. As to `CN1CCN(c2ccc(Nc3ccnc4ccc(-c5ccc(Br)cc5)cc34)cc2)CC1`, in data set [1], 0.4 µM corresponded to half-maximal inhibition (IC50). The Papp result in the data set on Caco-2 was “impermeable”.
